Laboratory results: PMC12316285, “The porphyran degradation system is complete, phylogenetically and geographically diverse across the gut microbiota of East Asian populations” (PLOS One, 2025)

Experiments:
BpS1_11 (Bacple_01701) = target: T1, BpS1_11 (Bacple_01701) (Phocaeicola plebeius, UniProt B5CYA4); test: 1H NMR of products; format: biochemical; details: desulfation of the non-reducing-end L-galactose 6-sulfate
T1 construct: signal peptide removed; pET-28 or pFO4, HisTrap purified; formylglycine sulfatase (Ser83 is formylglycine in mature enzyme)

BpGH16C (Bacple_01703) = target: T2, BpGH16C (Bacple_01703) (Phocaeicola plebeius, UniProt B5CYA6); test: X-ray crystal structure, […] Å, soaked crystal; format: binding; details: inactive mutant; soaked with tetrasaccharide, only a trisaccharide modelled (subsites -1 to -3; Figure 2 legend says disaccharide); pH 7.5
T2 construct: signal peptide removed; pET-28 or pFO4, HisTrap purified; three independent molecules in asymmetric unit of complex

BpGH2C (Bacple_01706) = target: T3, BpGH2C (Bacple_01706) (Phocaeicola plebeius, UniProt B5CYA9); test: 1H NMR after sequential enzyme incubation; format: biochemical; details: substrate made in situ by BpS1_[…] then BpGH29
T3 construct: signal peptide removed; pET-28 or pFO4, HisTrap purified
T3 sequence (B5CYA9 1-1086): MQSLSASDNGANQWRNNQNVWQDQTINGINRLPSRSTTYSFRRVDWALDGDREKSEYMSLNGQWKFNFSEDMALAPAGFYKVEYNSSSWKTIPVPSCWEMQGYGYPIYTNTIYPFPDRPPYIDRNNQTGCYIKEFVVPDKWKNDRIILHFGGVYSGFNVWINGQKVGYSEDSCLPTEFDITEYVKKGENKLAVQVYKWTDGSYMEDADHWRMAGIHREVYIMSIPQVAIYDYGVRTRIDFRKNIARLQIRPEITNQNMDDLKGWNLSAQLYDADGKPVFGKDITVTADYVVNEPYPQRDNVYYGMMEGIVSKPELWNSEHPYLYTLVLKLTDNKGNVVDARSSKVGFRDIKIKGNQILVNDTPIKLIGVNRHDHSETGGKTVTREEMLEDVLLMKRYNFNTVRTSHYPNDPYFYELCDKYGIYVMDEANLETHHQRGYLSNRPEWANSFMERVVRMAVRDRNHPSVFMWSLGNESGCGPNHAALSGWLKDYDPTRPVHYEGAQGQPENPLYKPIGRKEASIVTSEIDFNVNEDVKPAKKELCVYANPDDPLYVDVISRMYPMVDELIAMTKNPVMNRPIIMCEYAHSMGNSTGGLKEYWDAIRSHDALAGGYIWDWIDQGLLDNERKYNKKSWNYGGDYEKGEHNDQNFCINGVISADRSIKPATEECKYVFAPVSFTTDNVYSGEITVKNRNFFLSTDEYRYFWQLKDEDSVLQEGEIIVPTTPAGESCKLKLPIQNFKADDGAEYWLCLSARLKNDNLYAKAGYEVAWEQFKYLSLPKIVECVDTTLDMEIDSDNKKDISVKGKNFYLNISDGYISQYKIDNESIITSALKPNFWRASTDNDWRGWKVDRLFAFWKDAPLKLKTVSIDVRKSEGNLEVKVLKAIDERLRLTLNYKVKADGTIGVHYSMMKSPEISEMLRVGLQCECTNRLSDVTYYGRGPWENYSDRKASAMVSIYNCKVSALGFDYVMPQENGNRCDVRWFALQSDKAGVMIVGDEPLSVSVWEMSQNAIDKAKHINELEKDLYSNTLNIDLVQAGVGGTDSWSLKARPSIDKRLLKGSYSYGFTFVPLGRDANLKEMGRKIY

T2 sequence (B5CYA6 entry or part of it E178L): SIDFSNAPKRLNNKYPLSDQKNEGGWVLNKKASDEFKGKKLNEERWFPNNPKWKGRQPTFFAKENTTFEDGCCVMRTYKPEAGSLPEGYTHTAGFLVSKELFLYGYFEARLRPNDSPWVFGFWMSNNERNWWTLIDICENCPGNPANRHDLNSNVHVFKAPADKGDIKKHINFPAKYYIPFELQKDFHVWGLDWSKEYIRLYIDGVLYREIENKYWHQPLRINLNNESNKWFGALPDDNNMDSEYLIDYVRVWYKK
T1 sequence (B5CYA4 entry or part of it): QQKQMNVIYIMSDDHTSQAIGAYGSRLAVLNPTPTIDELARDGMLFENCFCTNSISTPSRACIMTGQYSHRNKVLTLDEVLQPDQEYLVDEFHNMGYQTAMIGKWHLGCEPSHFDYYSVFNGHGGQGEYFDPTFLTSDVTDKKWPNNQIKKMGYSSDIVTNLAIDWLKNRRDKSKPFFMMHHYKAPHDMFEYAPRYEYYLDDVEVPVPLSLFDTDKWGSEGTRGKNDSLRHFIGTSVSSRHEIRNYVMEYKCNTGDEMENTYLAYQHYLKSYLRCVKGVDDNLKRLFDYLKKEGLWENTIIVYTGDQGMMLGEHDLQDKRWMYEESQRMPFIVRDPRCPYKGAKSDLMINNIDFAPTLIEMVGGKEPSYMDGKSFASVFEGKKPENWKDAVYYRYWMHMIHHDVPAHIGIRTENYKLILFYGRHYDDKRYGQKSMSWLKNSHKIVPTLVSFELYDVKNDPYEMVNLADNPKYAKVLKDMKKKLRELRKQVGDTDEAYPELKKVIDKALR

SMILES	1H NMR of products (BpS1_11 (Bacple_01701))	X-ray crystal structure, 1.8 Å, soaked crystal (BpGH16C (Bacple_01703))	1H NMR after sequential enzyme incubation (BpGH2C (Bacple_01706))
O=S(=O)(O)OC[C@@H]1O[C@@H](O[C@H]2[C@@H](O)[C@@H](CO)O[C@@H](O[C@H]3[C@@H](O)[C@H](O)[C@H](O[C@H]4[C@@H](O)[C@@H](CO)OC(O)[C@@H]4O)O[C@H]3COS(=O)(=O)O)[C@@H]2O)[C@@H](O)[C@H](O)[C@@H]1O (stereo partly drawn) [L-α-6O-sulfate-Gal-(1 → 3)-D-β-Gal-(1 → 4)-L-α-6O-sulfate-Gal-(1 → 3)-D-a/β-Gal]	After desulfation of the tetra-saccharides	we crystallized the E145L inactive mutant with the tetrasaccharide	–
O=S(=O)(O)OC[C@@H]1O[C@@H](O[C@H]2[C@@H](O)[C@@H](CO)OC(O)[C@@H]2O)[C@@H](O)[C@H](O)[C@@H]1O[C@@H]1O[C@H](CO)[C@H](O)[C@H](O)[C@H]1O (stereo partly drawn) [trisaccharide with non-methylated D-galactose at the non-reducing end]	–	–	methylated or non-methylated D-galactose residue located at the non-reducing end of the trisaccharide was cleaved
